{"source": "patent US20240084258A1", "about": "“METHOD FOR PREPARING BROWN ADIPOCYTE” (KYOTO PREFECTURAL PUBLIC UNIVERSITY CORPORATION, priority 2015, published 2024)", "tested_on": "human dermal fibroblasts (HDFs)", "assay": "Oil Red O staining (Example 9)", "assay_type": "cell-based", "conditions": "D4476 2 μM in addition to Rosiglitazone and T3, day 14, FIG. 9", "protocol": "The next day, the culture supernatant was removed by suction and, as described in the Figure, a normal medium, an adipocyte induction medium, or an adipocyte induction medium added with each low-molecular-weight compound and the like was added at 500 μL/well.\nThe adipocyte induction medium is a 10% FBS-added DMEM+MDI medium (10% FBS-added DMEM supplemented with 0.5 mM isobutylmethylxanthine (IBMX), 0.5 μM dexamethason and 1 μg/mL Insulin).\nThe concentrations of the additives are as follows: • T3: 1 nM • Rosiglitazone: 1 μM • D4476: 2 μM.\nThe culture medium was substituted by a fresh one every 3-4 days and the cells were cultured up to day 14.\nThe cells were washed 3 times with sterile distilled water, Oil Red O staining solution was added, and the mixture was incubated at room temperature for 15 min. Then the cells were washed with sterile distilled water and photographed at a magnification of 100 with a microscope.", "data": [{"smiles": "NC(=O)c1ccc(-c2nc(-c3ccc4c(c3)OCCO4)c(-c3ccccn3)[nH]2)cc1", "note": "[D4476, 4-[4-(2,3-dihydro-1,4-benzodioxin-6-yl)-5-(2-pyridlnyl-)1H-imidazol-2-yl]-benzamide]", "values": [{"measurement": "Oil Red O staining", "result": "remarkable Oil Red O staining as compared to the control"}]}]}
